Measurements published in US20220162215A1, “COMPOSITIONS AND METHODS OF USING THE SAME FOR TREATMENT OF NEURODEGENERATIVE AND MITOCHONDRIAL DISEASE” (MITOKININ, INC., priority 2019, published 2022).
≈ marks a conversion by molar mass, not a printed value. Where two headings read alike, the source gives them in different places.

Assays:
HeLa MKYP cells [1] = assay: Human mitophagy assay (HeLa MKYP, mtKeima FACS, FCCP/oligomycin); format: cell-based
Procedure: (§1) Briefly, HeLa MKYP cells were plated at 10,000 cells/well in 96 well plates along with compounds at various concentrations. Following 16 hrs of incubation, cells were treated with 1 uM FCCP/oligomycin for 6 hours, then analyzed via FACS for the presence of mitochondria in lysosomes (as determined by an emissions spectrum shift from the pH-sensitive mtKeima tag). Examples are shown in FIG. 1 through FIG. 13 below.

HeLa MKYP cells [2] = assay: Toxicity / cell death measured by DAPI staining (take-up); format: cell-based; conditions: for Max cell death at 25 uM compound, 1 uM FO / Cell death at 25 μM (no FO): Table 3 Supplement B
Procedure: H2O2 treatment was performed as a control for cell death as measured by DAPI staining.
as §1, with “tag).” for “tag). Examples are shown in FIG. 1 through FIG. 13 below.”

Solubility in 1× PBS = format: physicochemical
[3] = Visual inspection of crystallization; format: physicochemical; design: key: 1: yes crystals; 0: no crystals; conditions: Tables 5A-5D
Procedure: (§2) Briefly, the Hela MKYP (Mito-Keima/YFP-Parkin) cells were seeded at 10K cells/well. EP/MTK compounds were added at seeding (cells were still in suspension). The cells were incubated with the EP/MTK compounds for 16 hours, then 1 μM FCCP/oligomycin was added for 6 hours. Prior to harvesting, cells were scored by eye under 20× magnification for the presence or absence of crystalline or aggregated compound, or round cells.

[4] = system: Hela MKYP (Mito-Keima/YFP-Parkin) cells; assay: Inspection of round cells; conditions: Tables 6A-6D
Procedure: as §2

[5] = Homo sapiens, HeLa, Table 3 Supplement B, read-out: Mitophagy EC50 (HeLa mKeima assay)
[6] = Homo sapiens, HeLa, Table 3, read-out: Potency at 1 μM F/O toxin* (EC50 of mitophagy activation)
[7] = Table 3, read-out: Potency at 1 μM F/O toxin* (EC50 of mitophagy activation)
[8] = Homo sapiens, HeLa, Table 3 Supplement A, as measured in Table 3, read-out: Potency (EC50 Max Mitophagy) (μM)*

Structure (SMILES) | EC50 (HeLa MKYP cells [1]; [5]) | Toxicity (% positive for DAPI takeup @ 50 μM) (HeLa MKYP cells [2]; Table 3) | Max cell death at 25 uM compound, 1 uM FO (HeLa MKYP cells [2]) | Cell death at 25 μM (no FO) (HeLa MKYP cells [2]) | solubility (Solubility in 1× PBS) | EC50 (HeLa MKYP cells [1]; [6]) | Visual inspection of crystallization ([3]; 1.6 μM) | Visual inspection of crystallization ([3]; 3.1 μM) | Visual inspection of crystallization ([3]; 6.3 μM) | Visual inspection of crystallization ([3]; 12.5 μM) | Visual inspection of crystallization ([3]; 25.0 μM) | Visual inspection of crystallization ([3]; 50.0 μM) | Inspection of round cells ([4]; 1.6 μM) | Inspection of round cells ([4]; 3.1 μM) | Inspection of round cells ([4]; 6.3 μM) | Inspection of round cells ([4]; 12.5 μM) | Inspection of round cells ([4]; 25.0 μM) | Inspection of round cells ([4]; 50.0 μM) | also measured
CC(=O)N1CCC(Nc2ncnc3[nH]c(C(F)(F)F)cc23)c2ccccc21 (stereo not drawn) [Compound 93] | 17.3 µM | 6.9% | 6.92% | 2.69% | 1.32 µM (≈ 0.495 µg/mL) | – | – | – | – | – | – | – | – | – | – | – | – | – | –
CO[C@H]1COc2ccccc2[C@H]1Nc1ncnc2[nH]c(C(F)(F)F)cc12 [Compound 99] | 13.3 µM | 3.6% | 3.555% | 2.49% | 20.9 µM (≈ 7.61 µg/mL) | 13.3 µM | – | – | – | – | – | – | – | – | – | – | – | – | –
CO[C@H]1COc2ccccc2[C@@H]1Nc1ncnc2[nH]c(C(F)(F)F)cc12 [Compound 98] | – | 15.9% | – | – | 16.3 µM (≈ 5.94 µg/mL) | – | – | – | – | – | – | – | – | – | – | – | – | – | EC50 (HeLa MKYP cells [1]; Table 3 Supplement B, listed as EP-0037863, read-out: Mitophagy EC50 (HeLa mKeima assay)): 4 µM; Max cell death at 25 uM compound, 1 uM FO (HeLa MKYP cells [2]; listed as EP-0037863): 15.865%; Cell death at 25 μM (no FO) (HeLa MKYP cells [2]; listed as EP-0037863): 3.66%
CO[C@@H]1COc2ccccc2[C@@H]1Nc1ncnc2[nH]c(C(F)(F)F)cc12 [Compound 96] | 1.63 µM | 12.1% | 12.11% | 3.4% | 23.8 µM (≈ 8.67 µg/mL) | 1.6 µM | – | – | – | – | – | – | – | – | – | – | – | – | –
O[C@@H]1Cc2ccccc2[C@@H]1Nc1ncnc2[nH]c(C(F)(F)F)cc12 [Compound 84] | 9.04 µM | 35.6% | 35.6% | 5.5% | 194 µM (≈ 64.9 µg/mL) | 9 µM | – | – | – | – | – | – | – | – | – | – | – | – | –
C[C@@H]1CCc2ccccc2[C@H]1Nc1ncnc2[nH]c(C(F)(F)F)cc12 [Compound 103] | 4.18 µM | 23.8% | 23.8% | 17.9% | 1 µM (≈ 0.346 µg/mL) | 4.2 µM | – | – | – | – | – | – | – | – | – | – | – | – | –
OC1CCc2ccccc2C1Nc1ncnc2[nH]c(C(F)(F)F)cc12 (stereo not drawn) [Compound 91] | – | 12.8% | 12.8% | 3.79% | 1 µM (≈ 0.348 µg/mL) | > 50 µM | – | – | – | – | – | – | – | – | – | – | – | – | Mitophagy EC50 (HeLa mKeima assay) (HeLa MKYP cells [1]; Table 3 Supplement B): Minimal activity
O[C@H]1Cc2ccccc2[C@H]1Nc1ncnc2[nH]c(C(F)(F)F)cc12 [Compound 83] | – | 21.2% | 21.2% | 2.75% | 194 µM (≈ 64.9 µg/mL) | > 50 µM | – | – | – | – | – | – | – | – | – | – | – | – | Mitophagy EC50 (HeLa mKeima assay) (HeLa MKYP cells [1]; Table 3 Supplement B): Minimal activity
Fc1ccc2c(c1)CCCC2Nc1ncnc2[nH]c(C(F)(F)F)cc12 (stereo not drawn) [Compound 109] | 1.06 µM | 30.1% | 30.1% | 3.27% | 1 µM (≈ 0.35 µg/mL) | > 50 µM | – | – | – | – | – | – | – | – | – | – | – | – | –
COc1ccc2c(c1)[C@@H](Nc1ncnc3[nH]c(C(F)(F)F)cc13)CCC2 [Compound 86] | – | 3.2% | – | – | 1.2 µM (≈ 0.435 µg/mL) | – | – | – | – | – | – | – | – | – | – | – | – | – | EC50 (HeLa MKYP cells [1]; [7]): 4 µM; EC50 (HeLa MKYP cells [1]; Table 3 Supplement B, listed as EP-0037130, read-out: Mitophagy EC50 (HeLa mKeima assay)): 3.99 µM; Max cell death at 25 uM compound, 1 uM FO (HeLa MKYP cells [2]; listed as EP-0037130): 3.18%; Cell death at 25 μM (no FO) (HeLa MKYP cells [2]; listed as EP-0037130): 1.18%
C[C@H]1CCc2ccccc2[C@H]1Nc1ncnc2[nH]c(C(F)(F)F)cc12 [Compound 101] | – | 12.0% | – | – | – | – | – | – | – | – | – | – | – | – | – | – | – | – | EC50 (HeLa MKYP cells [1]; [7]): > 50 µM; Mitophagy EC50 (HeLa mKeima assay) (HeLa MKYP cells [1]; Table 3 Supplement B): Minimal activity; Max cell death at 25 uM compound, 1 uM FO (HeLa MKYP cells [2]; listed as EP-0037881): 12%; Cell death at 25 μM (no FO) (HeLa MKYP cells [2]; listed as EP-0037881): 6.45%; solubility (Solubility in 1× PBS; aqueous buffer): 7.79 µM (≈ 2.7 µg/mL)
C[C@@H](Nc1ncnc2[nH]c(C(F)(F)F)cc12)c1cncnc1 [Compound 70] | – | – | – | – | – | 21.6 µM | 0 | 0 | 0 | 0 | 0 | 0 | 0 | 0 | 0 | 0 | 0 | 0 | EC50 (HeLa MKYP cells [1]; [8]): 21.6 µM; Toxicity (% positive for DAPI take-up at 50 μM)* (HeLa MKYP cells [2]; human): 22.95%; Toxicity (% positive for DAPI takeup @ 50 μM) (HeLa MKYP cells [2]; human): 22.9%
c1ncc(CNc2ncnc3[nH]cnc23)cn1 [Compound 67] | – | – | – | – | – | 4.4 µM | 0 | 0 | 0 | 0 | 0 | 0 | 0 | 0 | 0 | 0 | 0 | 0 | EC50 (HeLa MKYP cells [1]; [8]): 4.42 µM; Toxicity (% positive for DAPI take-up at 50 μM)* (HeLa MKYP cells [2]; human): 5.33%; Toxicity (% positive for DAPI takeup @ 50 μM) (HeLa MKYP cells [2]; human): 5.3%
C[C@H](Nc1ncnc2[nH]c(C(F)(F)F)cc12)c1cncnc1 [Compound 44] | – | – | – | – | – | 3.1 µM | 0 | 0 | 0 | 0 | 0 | 0 | 0 | 0 | 0 | 0 | 0 | 0 | EC50 (HeLa MKYP cells [1]; [8]): 3.15 µM; Toxicity (% positive for DAPI take-up at 50 μM)* (HeLa MKYP cells [2]; human): 23.68%; Toxicity (% positive for DAPI takeup @ 50 μM) (HeLa MKYP cells [2]; human): 23.7%
CCCCNc1ncnc2c1cc(C(F)(F)F)n2C(C)=O [Compound 69] | – | 36.6% | – | – | – | > 50 µM | 0 | 0 | 0 | 0 | 0 | 0 | 0 | 0 | 0 | 0 | 0 | 0 | –
C[C@@H](Nc1ncnc2[nH]cnc12)c1ccccc1 [Compound 52] | – | 10.1% | – | – | – | > 50 µM | 0 | 0 | 0 | 0 | 0 | 0 | 0 | 0 | 0 | 0 | 0 | 0 | EC50 (HeLa MKYP cells [1]; [8]): > 25 µM; Toxicity (% positive for DAPI take-up at 50 μM)* (HeLa MKYP cells [2]; Table 3 Supplement A, listed as EP-0036297): 10.14%
CN(C)C1CCC(CNc2ncnc3[nH]c(C(F)(F)F)cc23)CC1 (stereo not drawn) [Compound 50] | – | 5.2% | – | – | – | > 50 µM | 0 | 0 | 0 | 0 | 0 | 0 | 0 | 0 | 0 | 0 | 0 | 0 | Potency (EC50 Max Mitophagy) (μM)* (HeLa MKYP cells [1]; Table 3 Supplement A, as measured in Table 3): 0.01 µM; Toxicity (% positive for DAPI take-up at 50 μM)* (HeLa MKYP cells [2]; Table 3 Supplement A): 5.16%
CC(Nc1ncnc2[nH]c(C3CC3)nc12)c1ccccc1 (stereo not drawn) [Compound 28] | – | 18.3% | – | – | – | 6.3 µM | 0 | 0 | 0 | 0 | 0 | 0 | 0 | 0 | 0 | 0 | 0 | 0 | EC50 (HeLa MKYP cells [1]; [8]): 6.32 µM; Toxicity (% positive for DAPI take-up at 50 μM)* (HeLa MKYP cells [2]; Table 3 Supplement A): 18.26%
